Converted amounts (≈) assume the structure as drawn. The source made the active and inactive calls. The calls are words filed in the database; no cut-off is given here.
Experiments:
[1] = test system: Mycobacterium tuberculosis; test: Antimycobacterial activity against non-replicating Mycobacterium tuberculosis assessed as luciferase activity incubated for 8 days measured after 24 hrs of incubation by low oxygen recover assay; type: functional
Vero = test: Cytotoxicity against african green monkey Vero cells after 72 hrs by MTS assay; type: cell-based; details: Chlorocebus sabaeus
[2] = Selectivity index, ratio of IC50 for african green monkey Vero cells to MIC for non-replicating Mycobacterium tuberculosis; type: functional
[3] = test system: Mycobacterium tuberculosis; test: Antimycobacterial activity against non-replicating Mycobacterium tuberculosis assessed as colony forming unit after 8 days; type: functional; details: 192 h
[4] = test system: Mycobacterium tuberculosis; test: Antimycobacterial activity against Mycobacterium tuberculosis H37Rv infected in BALB/c mouse assessed as reduction of bacterial load in lungs at 5 mg/kg/day, intragastrically after 1 month relative to control; type: functional, organism-based
[5] = test system: Mycobacterium tuberculosis; test: Antimycobacterial activity against Mycobacterium tuberculosis H37Rv after 7 days by resazurin method; type: functional; details: 168 h
Mycobacterium avium [6] = test: Antimycobacterial activity against Mycobacterium avium 1581 at 0.2 mg/mL after 15 days relative to control; type: functional; details: 360 h
[7] = test system: Mycobacterium tuberculosis; test: Antimycobacterial activity against Mycobacterium tuberculosis H37Rv infected in BALB/c mouse assessed as reduction of bacterial load in lungs at 25 mg/kg/day, intragastrically after 1 month relative to control; type: functional, organism-based
Mycobacterium avium [8] = test: Antimycobacterial activity against Mycobacterium avium 1581 at 0.4 mg/mL after 15 days relative to control; type: functional; details: for inhibition at 400 µg/mL: 360 h
[9] = test system: Mycobacterium tuberculosis; test: Antimycobacterial activity against Mycobacterium tuberculosis H37Rv infected in BALB/c mouse assessed as lungs affected by pneumonia at 25 mg/kg/day, intragastrically after 1 month by histopathology study relative to control; type: functional, organism-based
Mycobacterium avium [10] = test: Antimycobacterial activity against Mycobacterium avium 1581 at 0.1 mg/mL after 15 days relative to control; type: functional; details: 360 h

CO[C@H]1/C=C/O[C@@]2(C)Oc3c(C)c(O)c4c(c3C2=O)C2=NC3(CCN(CC(C)C)CC3)N(C(C)=O)C2=C(NC(=O)/C(C)=C\C=C\[C@H](C)[C@H](O)[C@@H](C)[C@@H](O)[C@@H](C)[C@H](OC(C)=O)[C@@H]1C)C4=O
MIC [1]: 0.28 µM (≈ 0.249 µg/mL)
IC50 (Vero): > 92.7 µM
Selectivity ratio [2]: >331
MBC [3]: 0.18 µM (≈ 0.16 µg/mL)
Activity [4]: Active
MIC [5]: < 0.013 µg/mL
inhibition at 200 µg/mL (Mycobacterium avium [6]): > 99%
Activity [7]: Active
inhibition at 400 µg/mL (Mycobacterium avium [8]): > 99%

C=CCCCCCCCCC(=O)N1C2=C3NC(=O)/C(C)=C\C=C\[C@H](C)[C@H](O)[C@@H](C)[C@@H](O)[C@@H](C)[C@H](OC(C)=O)[C@H](C)[C@@H](OC)/C=C/O[C@@]4(C)Oc5c(C)c(O)c(c(c5C4=O)C2=NC12CCN(CC(C)C)CC2)C3=O
MIC [1]: 0.08 µM (≈ 0.0811 µg/mL)
IC50 (Vero): 36.9 µM
Selectivity ratio [2]: 462
MBC [3]: 0.08 µM (≈ 0.0811 µg/mL)
Activity [4]: inactive
MIC [5]: 0.1 µg/mL (≈ 0.0987 µM)
inhibition at 200 µg/mL (Mycobacterium avium [6]): 60%
Activity [7]: inactive
Activity [9]: inactive
inhibition at 400 µg/mL (Mycobacterium avium [8]): > 99%

CO[C@H]1/C=C/O[C@@]2(C)Oc3c(C)c(O)c4c(c3C2=O)C2=NC3(CCN(CC(C)C)CC3)NC2=C(NC(=O)/C(C)=C\C=C\[C@H](C)[C@H](O)[C@@H](C)[C@@H](O)[C@@H](C)[C@H](O)[C@@H]1C)C4=O
MIC [1]: 0.29 µM (≈ 0.233 µg/mL)
IC50 (Vero): > 46.6 µM
Selectivity ratio [2]: >161
MBC [3]: 0.18 µM (≈ 0.145 µg/mL)
MIC [5]: 0.025 µg/mL (≈ 0.0311 µM)
inhibition at 200 µg/mL (Mycobacterium avium [6]): 91%
inhibition at 400 µg/mL (Mycobacterium avium [8]): > 99%

CO[C@H]1/C=C/O[C@@]2(C)Oc3c(C)c(O)c4c(c3[C@H]2O)C2=NC3(CC[N+]([O-])(CC(C)C)CC3)NC2=C(NC(=O)/C(C)=C\C=C\[C@H](C)[C@H](O)[C@@H](C)[C@@H](O)[C@@H](C)[C@H](OC(C)=O)[C@@H]1C)C4=O (stereo partly specified)
MIC [5]: 0.6 µg/mL (≈ 0.694 µM)
inhibition at 200 µg/mL (Mycobacterium avium [6]): 44%
inhibition at 400 µg/mL (Mycobacterium avium [8]): 53%

CO[C@H]1/C=C/O[C@@]2(C)Oc3c(C)c(O)c4c(c3[C@H]2O)C2=NC3(CCN(CC(C)C)CC3)NC2=C(NC(=O)/C(C)=C\C=C\[C@H](C)[C@H](O)[C@@H](C)[C@@H](O)[C@@H](C)[C@H](OC(C)=O)[C@@H]1C)C4=O [RIFABUTINOL]
MIC [5]: < 0.05 µg/mL
inhibition at 200 µg/mL (Mycobacterium avium [6]): 86%
inhibition at 400 µg/mL (Mycobacterium avium [8]): > 99%

CO[C@H]1/C=C/O[C@@]2(C)Oc3c(C)c(O)c4c(c3C2=O)C2=NC3(CC[N+]([O-])(CC(C)C)CC3)NC2=C(NC(=O)/C(C)=C\C=C\[C@H](C)[C@H](O)[C@@H](C)[C@@H](O)[C@@H](C)[C@H](OC(C)=O)[C@@H]1C)C4=O (stereo partly specified)
MIC [1]: 0.44 µM (≈ 0.38 µg/mL)
IC50 (Vero): > 35.8 µM
Selectivity ratio [2]: >82
MBC [3]: 0.28 µM (≈ 0.242 µg/mL)
MIC [5]: 0.2 µg/mL (≈ 0.232 µM)
Activity (Mycobacterium avium [8]): inactive

CO[C@H]1/C=C/O[C@@]2(C)Oc3c(C)c(O)c4c(O)c(c(/C=N/N5CCN(C)CC5)c(O)c4c3C2=O)NC(=O)/C(C)=C\C=C\[C@H](C)[C@H](O)[C@@H](C)[C@@H](O)[C@@H](C)[C@H](OC(C)=O)[C@@H]1C [RIFAMPIN]
MIC [1]: 1.41 µM (≈ 1.16 µg/mL)
IC50 (Vero): 138 µM
Selectivity ratio [2]: 98
MBC [3]: 0.39 µM (≈ 0.321 µg/mL)

CO[C@H]1/C=C/O[C@@]2(C)Oc3c(C)c(O)c4c(c3[C@H]2O)C2=NC3(CCN(CC(C)C)CC3)N(C(C)=O)C2=C(NC(=O)/C(C)=C\C=C\[C@H](C)[C@H](O)[C@@H](C)[C@@H](O)[C@@H](C)[C@H](OC(C)=O)[C@@H]1C)C4=O
MIC [5]: 0.1 µg/mL (≈ 0.112 µM)
inhibition at 200 µg/mL (Mycobacterium avium [6]): 54%
inhibition at 400 µg/mL (Mycobacterium avium [8]): > 99%

CO[C@H]1/C=C/O[C@@]2(C)Oc3c(C)c(O)c4c(c3C2=O)C2=NC3(CC[N+]([O-])(CC(C)C)CC3)NC2=C(NC(=O)/C(C)=C\C=C\[C@H](C)[C@H](O)[C@@H](C)[C@@H](O)[C@@H](C)[C@H](O)[C@@H]1C)C4=O (stereo partly specified)
MIC [5]: 0.6 µg/mL (≈ 0.731 µM)
Activity (Mycobacterium avium [8]): inactive

CO[C@H]1/C=C/O[C@@]2(C)Oc3c(C)c(O)c4c(c3C2=O)C2=NC3(CCN(CC(C)C)CC3)NC2=C(NC(=O)/C(C)=C\C=C\[C@H](C)[C@H](O)[C@@H](C)[C@@H](O)[C@@H](C)[C@H](OC(C)=O)[C@@H]1C)C4=O [RIFABUTIN]
MIC [1]: 0.08 µM (≈ 0.0678 µg/mL)
inhibition at 100 µg/mL (Mycobacterium avium [10]): > 99%
IC50 (Vero): > 46.6 µM
Selectivity ratio [2]: >582
MBC [3]: 0.05 µM (≈ 0.0424 µg/mL)
MIC [5]: < 0.013 µg/mL
inhibition at 200 µg/mL (Mycobacterium avium [6]): > 99%

CO[C@H]1/C=C/O[C@@]2(C)Oc3c(C)c(O)c4c(c3[C@H]2O)C2=NC3(CCN(CC(C)C)CC3)NC2=C(NC(=O)/C(C)=C\C=C\[C@H](C)[C@H](O)[C@@H](C)[C@@H](O)[C@@H](C)[C@H](O)[C@@H]1C)C4=O
MIC [5]: 0.2 µg/mL (≈ 0.248 µM)
Activity (Mycobacterium avium [8]): inactive

CCCCCCCCCCCCCCCC(=O)N1C2=C3NC(=O)/C(C)=C\C=C\[C@H](C)[C@H](O)[C@@H](C)[C@@H](O)[C@@H](C)[C@H](OC(C)=O)[C@H](C)[C@@H](OC)/C=C/O[C@@]4(C)Oc5c(C)c(O)c(c(c5C4=O)C2=NC12CCN(CC(C)C)CC2)C3=O
MIC [1]: 1.08 µM (≈ 1.17 µg/mL)
IC50 (Vero): > 34.8 µM
Selectivity ratio [2]: >32
MBC [3]: 0.14 µM (≈ 0.152 µg/mL)
MIC [5]: 0.1 µg/mL (≈ 0.0921 µM)
